The values below come from publication PMC8387766 (The Journal of Biological Chemistry, 2021).

Each structure is given as a SMILES string.

One assay concerns the target mouse TRPV1 Y512A mutant (Mus musculus, UniProt Q704Y3, Y512A). Type of assay: cell-based. The settings on record: saturating concentration for the wildtype channel; whole-cell recording.
In assay [1] the target is T1, mouse TRPV1 (wildtype) (Mus musculus, UniProt Q704Y3). Particulars: WT channel; cited from earlier work.
Assay [2] addresses T1, mouse TRPV1 (wildtype). As to the kind of experiment: Whole-cell patch-clamp of wild-type TRPV1 in HEK293 cells. Format: cell-based.
In another assay the target is mouse TRPV1 E571A mutant (Mus musculus, UniProt Q704Y3, E571A). As to the kind of experiment: Whole-cell patch-clamp of TRPV1 E571A mutant. Type of assay: cell-based. Particulars: whole-cell recording. (In general: The patch-clamp technique gives a direct electrical read-out from membranes.)
Sequence of mouse TRPV1 E571A mutant (Q704Y3 whole entry E571A): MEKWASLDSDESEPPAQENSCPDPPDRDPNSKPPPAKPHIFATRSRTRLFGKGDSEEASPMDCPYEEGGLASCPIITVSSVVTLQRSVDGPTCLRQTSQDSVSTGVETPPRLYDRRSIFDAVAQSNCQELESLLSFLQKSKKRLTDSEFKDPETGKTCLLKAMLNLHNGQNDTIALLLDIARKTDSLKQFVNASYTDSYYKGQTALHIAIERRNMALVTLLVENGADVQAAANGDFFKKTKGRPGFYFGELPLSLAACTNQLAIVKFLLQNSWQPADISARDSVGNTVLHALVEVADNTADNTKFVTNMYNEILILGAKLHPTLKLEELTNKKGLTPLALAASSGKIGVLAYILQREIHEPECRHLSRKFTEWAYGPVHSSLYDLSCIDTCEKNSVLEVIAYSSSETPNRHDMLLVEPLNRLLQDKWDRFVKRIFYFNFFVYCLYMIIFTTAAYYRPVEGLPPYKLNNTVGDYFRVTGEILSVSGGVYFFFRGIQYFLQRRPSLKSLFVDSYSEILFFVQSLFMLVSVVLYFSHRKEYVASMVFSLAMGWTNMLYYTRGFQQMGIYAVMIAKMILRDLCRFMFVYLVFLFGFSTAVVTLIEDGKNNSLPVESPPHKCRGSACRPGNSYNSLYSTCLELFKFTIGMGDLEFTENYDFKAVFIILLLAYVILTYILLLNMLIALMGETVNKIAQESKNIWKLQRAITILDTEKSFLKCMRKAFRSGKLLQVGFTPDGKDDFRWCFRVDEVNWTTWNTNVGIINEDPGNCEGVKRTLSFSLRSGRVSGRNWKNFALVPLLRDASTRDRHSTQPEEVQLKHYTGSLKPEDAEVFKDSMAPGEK
The target of the next assay is mouse TRPV1 T551V mutant (Mus musculus, UniProt Q704Y3, T551V). As to the kind of experiment: cell-based. Format: cell-based.
Sequence of mouse TRPV1 T551V mutant (Q704Y3 whole entry T551V): as the sequence (Q704Y3 whole entry E571A) above, with T551V, A571E counted along it

T1 sequence (Q704Y3 whole entry): as the sequence (Q704Y3 whole entry E571A) above, with A571E counted along it
Sequence of mouse TRPV1 Y512A mutant (Q704Y3 whole entry Y512A): as the sequence (Q704Y3 whole entry E571A) above, with Y512A, A571E counted along it

As for `NCCOB(c1ccccc1)c1ccccc1` [2-APB, 2-aminoethyl diphenylborinate], at mouse TRPV1 Y512A mutant, the “activation of the Y512A mutant” value is reported as “largely activated”. Further, the “maximum open probability (Po_max)” value on mouse TRPV1 (wildtype) [1] was approximately 100%.

What is called EC50 is the concentration that produces a half-maximal response. As to `CCCCCCCC/C=C\CCCCCCCC(=O)NCCc1ccc(O)c(O)c1` [OLDA, N-oleoyldopamine], the EC50 is 290 ± 80 nM at mouse TRPV1 (wildtype) [2] and 540 ± 140 nM at mouse TRPV1 T551V mutant. Further, on mouse TRPV1 E571A mutant, the “activation of the E571A mutant” value is on record as “barely opened”.

In the case of `CCCCC/C=C\C/C=C\C/C=C\C/C=C\CCCC(=O)NCCO` [AEA, anandamide], the 50% effective concentration (EC50) came out at 6020 ± 1230 nM on mouse TRPV1 (wildtype) [2] and 4880 ± 780 nM on mouse TRPV1 T551V mutant. In addition, the “activation of the E571A mutant” value on mouse TRPV1 E571A mutant is “barely opened”.

In turn, `COc1cc(CNC(=O)CCCC/C=C/C(C)C)ccc1O` [capsaicin] displayed an EC50 on mouse TRPV1 (wildtype) [2] of 146 ± 39 nM. In addition, the “activation of the E571A mutant” value at mouse TRPV1 E571A mutant is on record as “can still activate”. In addition, the “shift of activation to higher concentration, T551V versus wildtype” value on mouse TRPV1 T551V mutant is “about 10 fold”. Also, the “activation of the Y512A mutant” value at mouse TRPV1 Y512A mutant is “activated”.
